Source: ChEMBL document CHEMBL1201862, “PubChem BioAssay data set” (2004)
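Interpolation was linear, between the two tested concentrations surrounding the appropriate level; five concentrations were tested over 48 hours in 96-well plates. Abbreviation: GI50, concentration required for 50% inhibition of growth.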 Active and inactive are the calls of the source. Rule as the data show it: active = GI50 up to about 1.1 µM and inactive = higher.

Columns and labels:
Assay in all cases: NCI-60 cell line screen, 48 h
HL-60 = system: HL-60
HCC 2998 = system: HCC 2998
HCT-116 = system: HCT-116
SF-295 = system: SF-295
SR = system: SR
COLO 205 = system: COLO 205
XF498 = system: XF498
HOP-62 = system: HOP-62
NCI-H522 = system: NCI-H522
SNB-75 = system: SNB-75
DMS-273 = system: DMS-273
TK-10 = system: TK-10
HOP-92 = system: HOP-92
SW-620 = system: SW-620
Malme-3M = system: Malme-3M
RXF 393 = system: RXF 393
A549 = system: A549
786-0 = system: 786-0
OVCAR-8 = system: OVCAR-8
HT-29 = system: HT-29
RPMI-8226 = system: RPMI-8226
SF-539 = system: SF-539
CCRF-CEM = system: CCRF-CEM
LOX IMVI = system: LOX IMVI
LXFL 529 = system: LXFL 529
SK-MEL-5 = system: SK-MEL-5
M14 = system: M14
MOLT-4 = system: MOLT-4
M19-MEL = system: M19-MEL
SK-MEL-2 = system: SK-MEL-2
EKVX = system: EKVX
UACC-62 = system: UACC-62
SK-MEL-28 = system: SK-MEL-28
IGROV-1 = system: IGROV-1
SK-OV-3 = system: SK-OV-3
ACHN = system: ACHN
UACC-257 = system: UACC-257
DMS-114 = system: DMS-114
CAKI-1 = system: CAKI-1
SN12C = system: SN12C
OVCAR-3 = system: OVCAR-3
HCT-15 = system: HCT-15
OVCAR-4 = system: OVCAR-4
NCI-H460 = system: NCI-H460
DLD-1 = system: DLD-1
KM12 = system: KM12
SF-268 = system: SF-268
KM-20L2 = system: KM-20L2
K562 = system: K562
SNB-19 = system: SNB-19
NCI-H226 = system: NCI-H226
U-251 = system: U-251
UO-31 = system: UO-31
A498 = system: A498
OVCAR-5 = system: OVCAR-5
NCI-H23 = system: NCI-H23
SNB-78 = system: SNB-78
NCI/ADR-RES = system: NCI/ADR-RES
MCF7 = system: MCF7
HOP-18 = system: HOP-18

Measured: GI50

Cn1cc(C(=O)c2ccccc2)c2ccccc2c1=O
inactive: HL-60 24.8 µM | HCC 2998 > 100 µM | HCT-116 > 100 µM | SF-295 93.5 µM | SR > 100 µM | COLO 205 > 100 µM | XF498 > 100 µM | HOP-62 18.8 µM | NCI-H522 34.4 µM | SNB-75 23.4 µM | DMS-273 > 100 µM | TK-10 73.1 µM | HOP-92 62.8 µM | SW-620 > 100 µM | Malme-3M > 100 µM | RXF 393 > 100 µM | A549 > 100 µM | 786-0 > 100 µM | OVCAR-8 > 100 µM | HT-29 > 100 µM | RPMI-8226 94.2 µM | SF-539 > 100 µM | CCRF-CEM > 100 µM | LOX IMVI > 100 µM | LXFL 529 89.3 µM | SK-MEL-5 > 100 µM | M14 > 100 µM | MOLT-4 > 100 µM | M19-MEL > 100 µM | SK-MEL-2 > 100 µM | EKVX > 100 µM | UACC-62 49.2 µM | SK-MEL-28 > 100 µM | IGROV-1 > 100 µM | SK-OV-3 > 100 µM | ACHN > 100 µM | UACC-257 > 100 µM | DMS-114 > 100 µM | CAKI-1 50.6 µM | SN12C > 100 µM | OVCAR-3 > 100 µM | OVCAR-4 > 100 µM | NCI-H460 > 100 µM | DLD-1 > 100 µM | KM12 > 100 µM | SF-268 > 100 µM
> 100 µM: HCT-15

COC(=O)CC1NC(=O)[C@@H]1C(C)O (stereo partly specified)
inactive: HL-60 > 100 µM | KM-20L2 > 100 µM | HCC 2998 > 100 µM | HCT-116 > 100 µM | SF-295 > 100 µM | SR > 100 µM | COLO 205 > 100 µM | XF498 > 100 µM | HOP-62 > 100 µM | SNB-75 > 100 µM | DMS-273 > 100 µM | TK-10 > 100 µM | SW-620 > 100 µM | Malme-3M > 100 µM | RXF 393 > 100 µM | A549 > 100 µM | 786-0 > 100 µM | OVCAR-8 > 100 µM | HT-29 > 100 µM | K562 > 100 µM | SNB-19 > 100 µM | NCI-H226 > 100 µM | RPMI-8226 > 100 µM | SF-539 > 100 µM | CCRF-CEM > 100 µM | LOX IMVI > 100 µM | LXFL 529 > 100 µM | SK-MEL-5 > 100 µM | M14 > 100 µM | MOLT-4 > 100 µM | U-251 > 100 µM | UO-31 > 100 µM | M19-MEL > 100 µM | SK-MEL-2 > 100 µM | EKVX > 100 µM | UACC-62 > 100 µM | SK-MEL-28 > 100 µM | IGROV-1 > 100 µM | ACHN > 100 µM | UACC-257 > 100 µM | DMS-114 > 100 µM | SN12C > 100 µM | OVCAR-3 > 100 µM | A498 > 100 µM | OVCAR-4 > 100 µM | NCI-H460 > 100 µM | DLD-1 > 10 µM | SF-268 > 100 µM
> 100 µM: HCT-15

Brc1c2nc3ccccc3nc2n2ccc3ccccc3c12
> 100 µM: HCT-15
inactive: OVCAR-5 > 100 µM | HL-60 > 100 µM | KM-20L2 > 100 µM | HCC 2998 > 100 µM | HCT-116 > 100 µM | SR > 100 µM | COLO 205 > 100 µM | XF498 > 100 µM | HOP-62 > 100 µM | NCI-H522 69.5 µM | SNB-75 > 100 µM | DMS-273 > 100 µM | TK-10 > 100 µM | HOP-92 > 100 µM | SW-620 > 100 µM | Malme-3M > 100 µM | A549 > 100 µM | 786-0 > 100 µM | OVCAR-8 > 100 µM | K562 > 100 µM | SNB-19 > 100 µM | RPMI-8226 > 100 µM | SF-539 > 100 µM | CCRF-CEM > 100 µM | LOX IMVI > 100 µM | LXFL 529 > 100 µM | SK-MEL-5 > 100 µM | M14 > 100 µM | MOLT-4 > 100 µM | U-251 > 100 µM | UO-31 > 100 µM | M19-MEL > 100 µM | SK-MEL-2 > 100 µM | EKVX > 100 µM | UACC-62 > 100 µM | SK-MEL-28 > 100 µM | IGROV-1 47.6 µM | SK-OV-3 2.23 µM | ACHN > 100 µM | UACC-257 > 100 µM | DMS-114 > 100 µM | CAKI-1 > 100 µM | SN12C > 100 µM | OVCAR-3 > 100 µM | NCI-H23 > 100 µM | OVCAR-4 > 100 µM | NCI-H460 > 100 µM | DLD-1 > 100 µM | KM12 > 100 µM | SNB-78 > 100 µM | SF-268 > 100 µM

CC1C(O)[C@@]2(OC[C@@]34C(=O)CC5(O)[C@H](CCC6Cc7nc8c(nc7C[C@]65C)CC5CC[C@@H]6C7=C[C@H]9O[C@@]%10(O[C@@](C)(CO)C[C@@H]%10O)C(C)[C@@]9(O)[C@]7(C)[C@@H](O)CC6[C@]5(C)C8)C3=CC[C@H]4C2C)OC1(C)C (stereo partly specified)
active: OVCAR-5 0.00211 µM | HL-60 < 0.000355 µM | KM-20L2 0.000796 µM | HCC 2998 0.548 µM | HCT-116 0.000776 µM | SF-295 < 0.000355 µM | COLO 205 0.00532 µM | HOP-62 < 0.000355 µM | NCI-H522 0.00308 µM | SNB-75 < 0.000355 µM | DMS-273 < 0.000355 µM | HOP-92 < 0.000355 µM | SW-620 0.000385 µM | Malme-3M 0.00287 µM | RXF 393 < 0.000355 µM | A549 < 0.000355 µM | OVCAR-8 0.247 µM | HT-29 0.000622 µM | K562 < 0.000355 µM | SNB-19 0.00259 µM | RPMI-8226 < 0.000355 µM | SF-539 < 0.000355 µM | CCRF-CEM < 0.000355 µM | LOX IMVI < 0.000355 µM | SK-MEL-5 0.00667 µM | MOLT-4 < 0.000355 µM | U-251 < 0.000355 µM | UO-31 0.0254 µM | M19-MEL 0.442 µM | SK-MEL-2 0.000524 µM | EKVX 0.00084 µM | UACC-62 < 0.000355 µM | MCF7 < 0.000355 µM | IGROV-1 0.00262 µM | SK-OV-3 0.00226 µM | UACC-257 0.00524 µM | DMS-114 < 0.000355 µM | CAKI-1 0.0119 µM | SN12C 0.628 µM | HOP-18 0.849 µM | NCI-H23 0.00127 µM | A498 < 0.000355 µM | OVCAR-4 0.604 µM | NCI-H460 < 0.000355 µM | DLD-1 0.0607 µM | SNB-78 0.00146 µM | SF-268 0.000659 µM
inactive: NCI-H226 > 3.55 µM | NCI/ADR-RES > 3.55 µM | OVCAR-3 1.26 µM | KM12 > 3.55 µM
0.00667 µM: HCT-15

COc1ccc(/C=C2\CCC(CCN(C)C)(C3=CCCC3)C2=O)cc1 (stereo unspecified)
inactive: OVCAR-5 21.5 µM | HL-60 15.9 µM | KM-20L2 14.1 µM | HCC 2998 18.6 µM | HCT-116 15.1 µM | SF-295 18.7 µM | SR 27.2 µM | COLO 205 12.8 µM | HOP-62 18 µM | NCI-H522 16.1 µM | SNB-75 19 µM | DMS-273 17.1 µM | TK-10 16.7 µM | HOP-92 20.7 µM | SW-620 16.8 µM | Malme-3M 16 µM | RXF 393 7.6 µM | A549 19.2 µM | 786-0 15.3 µM | OVCAR-8 16.8 µM | HT-29 15.5 µM | K562 15.7 µM | SNB-19 16.6 µM | NCI-H226 20.6 µM | RPMI-8226 20.8 µM | SF-539 16.1 µM | CCRF-CEM 17.1 µM | LOX IMVI 16.6 µM | LXFL 529 16.7 µM | SK-MEL-5 16.5 µM | M14 15.1 µM | MOLT-4 23.9 µM | U-251 16.5 µM | UO-31 14.8 µM | M19-MEL 15.1 µM | SK-MEL-2 17.6 µM | EKVX 14 µM | UACC-62 16.4 µM | SK-MEL-28 19 µM | IGROV-1 16.7 µM | ACHN 16.9 µM | UACC-257 16.9 µM | DMS-114 15.6 µM | CAKI-1 10.7 µM | SN12C 19.9 µM | HOP-18 14.1 µM | OVCAR-3 19.1 µM | NCI-H23 29 µM | A498 17.7 µM | OVCAR-4 19.7 µM | NCI-H460 20.1 µM | DLD-1 26.4 µM | KM12 18 µM | SNB-78 21.8 µM | SF-268 18.2 µM
22.3 µM: HCT-15
